Measured values: article PMC4045324 (Biochemistry, 2014)

Experiments:
[1] = molecular target: MtDXR W203F (Mycobacterium tuberculosis, UniProt P9WNS1, W203F)
[2] = molecular target: MtDXR W203Y (Mycobacterium tuberculosis, UniProt P9WNS1, W203Y)

O=CN(O)CCCP(=O)(O)O [fosmidomycin]
binding enthalpy more exothermic than wild type by [1]: 2.8 kcal/mol
enthalpy share of total binding energy (enthalpy-driven binding) [1]: 75%
ΔG° ([1]; pH 7.5): –10.10 ± 0.05 kcal/mol
ΔH° ([1]; pH 7.5): –7.6 ± 0.7 kcal/mol
–TΔS° ([1]; pH 7.5): –2.5 ± 0.7 kcal/mol
binding enthalpy more exothermic than wild type by [2]: 5.4 kcal/mol
enthalpy share of total binding energy (enthalpy-driven binding) [2]: 91%
ΔG° ([2]; pH 7.5): –11.26 ± 0.19 kcal/mol
ΔH° ([2]; pH 7.5): –10.2 ± 0.3 kcal/mol
–TΔS° ([2]; pH 7.5): –1.0 ± 0.4 kcal/mol
